Patent US20250161238A1, “NMDAR Antagonists Prevent Ageing and Aging-Associated Conditions and Diseases Through Increasing 20S Proteasome Activity” (priority 2022, published 2025)

Experiments:
[1] = target: T1, 26S proteasome (Homo sapiens, UniProt P28072+P28074+Q99436); assay: Proteasome activity assay with cell lysate and fluorogenic substrates; format: biochemical; settings: cell lysate
T1 construct: endogenous in cells; host or cells: crude cell lysate
T1 sequence (P28074 60-263): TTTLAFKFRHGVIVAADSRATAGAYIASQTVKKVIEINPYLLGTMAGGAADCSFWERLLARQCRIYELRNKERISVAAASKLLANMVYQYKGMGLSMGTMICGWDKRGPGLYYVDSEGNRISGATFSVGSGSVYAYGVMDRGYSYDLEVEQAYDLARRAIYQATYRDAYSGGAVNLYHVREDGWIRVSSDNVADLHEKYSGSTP
T1 sequence (Q99436 44-277): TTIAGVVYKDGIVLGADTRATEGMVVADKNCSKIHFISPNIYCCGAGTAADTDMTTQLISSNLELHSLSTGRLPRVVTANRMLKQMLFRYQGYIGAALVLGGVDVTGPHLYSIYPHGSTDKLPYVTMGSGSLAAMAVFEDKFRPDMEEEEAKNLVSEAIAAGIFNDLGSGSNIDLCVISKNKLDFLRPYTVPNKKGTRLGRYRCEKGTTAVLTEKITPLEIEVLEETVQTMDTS
T1 sequence (P28072 1-239): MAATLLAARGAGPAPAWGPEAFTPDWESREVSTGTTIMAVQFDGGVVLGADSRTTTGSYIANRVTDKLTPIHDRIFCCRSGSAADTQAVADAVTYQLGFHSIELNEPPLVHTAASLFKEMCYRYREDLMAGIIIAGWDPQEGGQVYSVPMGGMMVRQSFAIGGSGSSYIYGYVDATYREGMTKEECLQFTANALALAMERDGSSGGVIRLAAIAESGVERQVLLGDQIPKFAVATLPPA
Protocol: The activity of the 26S proteasome was measured by following steps. Aliquots of 2×10^6 cells were lysed with glass beads (Sigma) at 4° C. in lysis buffer containing 50 mM Tris-HCl (pH 7.5), 5 mM MgCl2, 1 mM DTT and 250 mM sucrose, and the protein concentration of cleared supernatants was measured by BCA protein assay reagent (Pierce). Ten micrograms of total protein was diluted with 26S proteasome assay buffer in a 96-well microtiter plate (BD Falcon), and incubated with fluorogenic substrates including Suc-LLVY-AMC, Z-LLE-AMC, and Ac-RLR-AMC Ac-RLR-AMC (Cayman-U.S.A.) were used to measure chymotrypsin, caspase-, and trypsin-like proteasome activity, respectively. Fluorescence released by AMC fluorescence was monitored on a microplate fluorometer (Biotek instrument-synergy HT) every 5 min at 37° C. for 1 h.

[2] = tested on: primary human fibroblast cells; assay: MTT assay of primary human fibroblast cells; format: cell-based; settings: cells set up at passage 8
Excerpt: (§1) First, primary human fibroblast cells were divided into two as control and NMDAR added group at the 4th passage and followed under the same condution until the 10th passage.
Cellular senescence is defined as a complete and irreversible loss of replicative capacity in primary somatic cells. (hayflick 1961). Therefore, MTT assay is used to measure cellular metabolic activity as an indicator of cell viability and proliferation in cells set up at passage 8.

[3] = tested on: primary human fibroblast cells; assay: SA β-gal staining of primary human fibroblast cells; format: cell-based; settings: passage 10
Excerpt: as §1
Therefore cellular senescence were investigated by SA β-gal staining in cells at passage 10.

[4] = tested on: primary human fibroblast cells; assay: Nile red staining of lipid droplets in primary fibroblast cells; format: cell-based; settings: late passage
Excerpt: In another experiment, the amount of intracellular lipid droplets as indicator of fat metabolism were investigated in senescent cells with nile red staining in cells at the late passage. Nile red is a lipophilic stain which stain intracellular lipid droplets and proteins. Lipid droplets are highly dinamic cellular organelles involved in the storage and the metabolism of neutral lipids.

[5] = target: T2, proteasome (Homo sapiens, UniProt P28072+P28074+Q99436); assay: In-Cell Fluorogenic Proteasome Assay, T98G; format: cell-based; design: endogenous in cells; host or cells: T98G (A10), digitonin/Tween-permeabilised whole cells; settings: whole T98G cell
T2 sequence (P28074 60-263): T1 sequence (P28074 60-263)
T2 sequence (Q99436 44-277): T1 sequence (Q99436 44-277)
T2 sequence (P28072 1-239): T1 sequence (P28072 1-239)
Protocol: (§2) For a 96-well plate format, 8×10^3 cells per well were seeded. 24 hours later medium was changed with NMDAR blocker containing medium. Two hours later 100 μl of 2× flourescence cell buffer: (1 ml 1M tris hcl ph: 7.5, 500 μl 1M KCL, 200 μl […], 200 μl 0.1M MgCL2, 50 μl % 0.2 tween 20, 75 μl digitonin 20 mg/ml in DMSO ChemCruz cat no: sc-280675, 10 μl flourescence substrates including Suc-LLVY-AMC, Z-LLE-AMC, and Ac-RLR-AMC Ac-RLR-AMC, 8.1 ml H2O). After incubation at room temperature for a 5 minutes the flourescence of each sample were measured in a flourescence spectrometer (Biotek instrument-Synergy HT).

[6] = target: T2, proteasome; assay: In-Cell Fluorogenic Proteasome Assay, HepG2; format: cell-based; design: endogenous in cells; host or cells: HepG2 (A9), T98G (A10), digitonin/Tween-permeabilised whole cells; settings: for trypsin, chemotrypsin and caspase-like proteasome activities: whole HepG2 cell
Protocol: as §2

[7] = tested on: C. elegans; assay: C. elegans lipid accumulation by Nile Red staining; format: in vivo
Excerpt: In the next study, the effects of NMDAR blocker on lipid accumulation and central body fat and thus the fat metabolism in C. elagans was investigated. As mentioned above Nile red is a lipophilic stain which stain intracellular lipid droplets in cell. Therefore, in the presence of memantine and control C. elegans groups on the 19th day, the amount of fat in the living organisms was investigated by Nile Red staining.

[8] = tested on: mice; assay: Color change and condition of fur of aged mice; format: in vivo; settings: 22 months of age; 3 mg/Kg/per day with drinking water
Excerpt: Ten mice, one year old, were supplied for the study. The mice were divided into two groups and one added memenatine to their drinking water, while the other group was designated as the control group. Mice were followed until they were 2 years old. Clinical frailty tests were investigated and compared in the two groups of mice at 22 months. The simplest and most easly determined findings of clinical signs of deterioration in aging mice are the evaluation of changes in mouse skin.
The experimental protocols were approved by the Ethics Committee of Ankara University, Faculty of Medicine, Medical Sciences Experimental Research and Application Center (Date: Dec. 11, 2019 and Decision number: 2019-22-189). Adult (12-mounts-old) C57BL/6 mice (5 for each group) were used. The mice were housed at the Experimental Animal Research Laboratory of Ankara University Faculty of Medicine. Food and water were given without restriction. The ambient temperature was kept at 21±2° C., and locomotor activity tests were performed at this temperature. The animals were housed in a room with a 12-hour light/dark cycle. The procedures in the study were performed in accordance with the Ankara University Animal Care Committee according to international guidelines. […] Tests related to locomotor activities of the mice were recorded and available.

SMILES | trypsin, chemotrypsin and caspase-like proteasome activity [1] | proliferation (MTT assay) [2] | SA β-gal stained cells, control cells compared to treated cells [3] [fold] | Nile red flourescence (intracellular lipid droplets) [4] | trypsin, chemotrypsin and caspase-like proteasome activities [5] | trypsin, chemotrypsin and caspase-like proteasome activities [6] | chemotrypsin activity of proteasome ([6]; whole cell, substance alone) | lipid accumulation in control group compared to treated ([7]; 19th day) | lipid accumulation in control group compared to treated ([7]; 20th day) | color change and condition of mouse fur [8] | chemotrypsin activity of proteasome in the presence of RA190 ([6]; HepG2)
CNC1(c2ccccc2Cl)CCCCC1=O (centres unmarked) [ketamin, 2-(2-chlorophenyl)-2-(methylamino)-cyclohexanone] | no effects | higher | 2.6 | more flourescence | increased | increased | depending on the amount of the drugs |  |  |  | 
CC12CC3CC(C)(C1)CC(N)(C3)C2 [memantine, 3,5-dimethyladamantan-1-amine] | no effects | higher | 1.8 | more flourescence | increased | increased |  | more than 2 fold | more than 2 fold | very different in favor of those who received memantine | very similar to the ketamin results
